In brackets after ≈: the same amount, converted by molar mass.
Tests used:
Candida albicans [1] = assay: Anticandidal activity, agar-well diffusion assay (zone of inhibition); format: cell-based; details: three test strains of Candida albicans; pure compounds at 1 mg/ml; 37° for 24 hours
Protocol: In vitro evaluation of the anticandidal activity of the inventive compound and compositions was carried out using the agar-well diffusion assay as follows:
Candida albicans NIH B311 used to induce experimental disseminated candidiasis was used for the initial qualitative evaluation of anticandidal activity. The organism was grown in Sabouraud-dextrose broth (SDB) for 14 hours at 37°, at which time the cells were harvested by centrifugation (4°, 2000 rpm, 3 min). After centrifugation, the cells were washed and suspended in sterile 0.9% saline to give a final concentration of 10^6 colony forming units (CFU) per ml (adjusted using a hemocytometer). Culture plates (15×100 mm) for the qualitative assay were prepared from 25 ml of Sabouraud-dextrose agar. Using sterile cotton swabs, the plates were streaked with the suspension (10^6 CFU/ml) of Candida albicans B311. Cylindrical plugs were removed from the agar plates by means of a sterile cork borer to produce wells with a diameter of approximately 11 mm. To the well was added 100 μl of solution or suspension of an extract, fraction, or pure compound. Crude extracts and fractions were tested at a concentration of 20 mg/ml, whereas pure compounds were tested at 1 mg/ml. […] Anticandidal activity was recorded as the width (in mm) of the zone of inhibition following incubation of the plates at 37° for 24 hours. […]

Candida albicans [2] = assay: In vivo disseminated Candida albicans infection in mice, CFU recovered from the kidneys; design: species or system outbred mice; details: for % Reduction: kidney CFU versus vehicle control; for CFU/g × 10^6 (range): kidney
Protocol: In the in vivo testing of the invention onychine, outbred mice were used. A disseminated infection of Candida albicans in the test animals was achieved by intravenous injection of 10^6 CFU of the pathogen. The organism is rapidly cleared from the blood and most tissues, except the kidney which is the primary target organ for the disseminated infection in mice. It is known than an inoculum of 10^6 CFU will produce a disseminated infection in outbred mice within […]. Onychine was administered to infected mice by intraperitoneal injection 7 hrs post-inoculation. The vehicle used for administering the compound of the invention was a mixture consisting of 50% USP water, 40% propylene glycol and 10% absolute ethonol.

Candida albicans WH = assay: Minimum inhibitory concentration (MIC), twofold serial broth dilution assay, Candida albicans WH (clinical isolate); format: cell-based; details: 24 and 48 hours at 37°
Protocol: (§1) The method used to determine the minimum inhibitory concentration (MIC) of the inventive compound was a twofold serial broth dilution assay in yeast nitrogen broth. In addition to Candida albicans B311, the MIC values for onychine were also determined for two additional strains of Candida albicans: ATCC 10231 and a clinical isolate, designated WH. Also tested were Mycobacterium smegmatis 607, Bacillus subtilis, 6633, Cryptococcus neoformans 32264, Aspergillus flavus 9170, Aspergillus fumigatus 26934, and Trichophyton mentagrophytes 9972. The inventive compound was initally tested using a concentration of 100 μg/ml in the first tube. The compound was added to sterile Sabourauddextrose broth as a solution in DMSO. The inoculum for the MIC determination was prepared as described for qualitative evaluation. Using a calibrated sterile wire loop, 10μl of the 10^6 CFU/ml suspension of Candida albicans was used as inoculum for each tube. The MIC value was taken as the lowest concentration of compound that inhibited the growth of the test organisms after 24 and 48 hours of incubation at 37°. The antifungal agents amphotericin-B and ketoconazole were included as standards in each screen. The results of the MIC testing for various pathogenic agents is set out in Table I.

Candida albicans 10231 = assay: Minimum inhibitory concentration (MIC), twofold serial broth dilution assay, Candida albicans ATCC 10231; format: cell-based; details: ATCC10231, 24 and 48 hours at 37°
Protocol: as §1

Candida albicans B311 = assay: Minimum inhibitory concentration (MIC), twofold serial broth dilution assay, Candida albicans B311; format: cell-based; details: yeast nitrogen broth, 24 and 48 hours at 37°
Protocol: as §1

[3] = under varying conditions; cited from earlier work
Candida albicans [4] = details: reported in Journal of Natural Products, Vol. 50, No. 5, pp. 961-964, 1987; cited from earlier work

Cc1ccnc2c1C(=O)c1ccccc1-2 [Onychine, 1-methyl-4-azafluoren-9-one]
zone of inhibition (Candida albicans [1]): remarkable zone of inhibition
number of CFU of Candida albicans recovered from the kidneys versus vehicle treated control mice (Candida albicans [2]; 0.1 mg/kg intraperitoneal 7 hrs post-inoculation): significantly lower
% Reduction (Candida albicans [2]; 0.1 mg/kg intraperitoneal, n=8, P 0.047): 95.5%
% Reduction (Candida albicans [2]; 0.5 mg/kg intraperitoneal, n=7, P 0.082): 86.7%
CFU/g × 10^6 (range) (Candida albicans [2]; 0.1 mg/kg intraperitoneal 7 hrs post-inoculation, n=8, range 0.05-0.3, P 0.047): 0.17 CFU/g × 10^6
CFU/g × 10^6 (range) (Candida albicans [2]; 0.5 mg/kg intraperitoneal 7 hrs post-inoculation, n=7, range 0.11-1.05, P 0.082): 0.50 CFU/g × 10^6
MIC (Candida albicans WH): 25 µg/mL (≈ 128 µM)
MIC (Candida albicans 10231): 1.56 µg/mL (≈ 7.99 µM)
MIC (Candida albicans B311): 3.12 µg/mL (≈ 16 µM)

CC1C=CC=CC=CC=CC=CC=CC=CC(OC2OC(C)C(O)C(N)C2O)CC2OC(O)(CC(O)CC(O)C(O)CCC(O)CC(O)CC(=O)OC(C)C(C)C1O)CC(O)C2C(=O)O (centres unmarked) [amphotericin-B]
side effects in humans [3]: fever, anorexia, nausea and vomiting, diarrhea, muscle and joint pain, phlebitis and thiophlebitis, anemia, abnormal renal function, anuria, cardiovascular distress, hypertension and hypotension

c1ccc2c(c1)-c1nccc3ccnc-2c13 [eupolauridine]
anticandidal properties (Candida albicans [4]): possibly remarkable anticandidal properties

From US4873250A, “Antimicrobial compound and compositions particulary effective against candida albicans” (The University of Mississippi, priority 1988, dated 1989)
